# Active and inactive are the calls of the source. The rule behind the calls is not given here. Peptide text beside a SMILES is read from it.
# Target: Neuromedin-K receptor (NK-3) (Homo sapiens) (UniProt P29371)
# Experiment: Displacement of [MePhe7]-NKB from human recombinant NK3 receptor at 10 uM
# Chain of Neuromedin-K receptor (NK-3) (Homo sapiens) (P29371 whole entry, looked up): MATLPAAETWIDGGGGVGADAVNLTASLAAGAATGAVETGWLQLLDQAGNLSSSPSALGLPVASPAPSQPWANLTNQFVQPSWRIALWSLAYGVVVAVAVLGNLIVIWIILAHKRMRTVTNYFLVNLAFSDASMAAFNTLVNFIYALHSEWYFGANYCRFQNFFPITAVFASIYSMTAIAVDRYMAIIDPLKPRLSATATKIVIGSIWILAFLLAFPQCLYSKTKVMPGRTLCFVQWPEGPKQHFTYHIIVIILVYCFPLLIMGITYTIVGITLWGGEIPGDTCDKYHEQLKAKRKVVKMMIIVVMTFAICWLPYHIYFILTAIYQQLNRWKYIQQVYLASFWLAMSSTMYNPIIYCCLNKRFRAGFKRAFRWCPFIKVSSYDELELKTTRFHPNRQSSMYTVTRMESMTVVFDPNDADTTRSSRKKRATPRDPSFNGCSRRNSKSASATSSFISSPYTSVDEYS
smiles,measurement,value
NC(=O)[C@H](Cc1ccccc1)NC(=O)[C@@H](N)Cc1ccccc1 (H-Phe-Phe-NH2),Activity,inactive

# Reference: ChEMBL document CHEMBL1157632, “Discovery of dipeptides with high affinity to the specific binding site for substance P1-7” (J Med Chem, 2010)
